Measured values taken from US11541029B2, “High penetration compositions and their applications” (Techfields Pharma Co., Ltd., priority 2008, dated 2023).
Where two headings read alike, the source gives them in different places.

Columns and labels:
[1] = In vitro penetration rate through human skin, Franz cells; assay type: in vitro ADME
Experimental: Penetration rates of HPCs through human skin were measured in vitro by Franz cells. A Franz cell has two chambers, a top sample chamber and a bottom receptor chamber.
Test compounds were diethylaminoethyl N-acetyl-3-(3,4-diacetyloxy-phenyl-L-alanine ester.HCl salt (A), diethylaminopropyl N-acetyl-D-3,5,3′,5′-tetraiodothyronine.HCl salt(B), 1-piperidineethyl 2-[4-(4-chlorobenzoyl)phenoxy]-2-methyl-propinate. HCl salt(C), 3-piperidinemethyl 5-(2,5-dimethylphenoxy)-2,2-dimethylpentanoate.HCl salt(D), diethylaminoethyl (S)-3-(benzoylaminomethyl)-5-methylhexanoate.HCl salt(E), N-acetyl-3-(3,4-diacetyloxy-phenyl-L-alanine(F) sodium salt, N-acetyl-D-3,5,3′,5′-tetraiodothyronine sodium salt(G), 2-[4-(4-chlorobenzoyl)phenoxy]-2-methyl-propinic acid sodium salt(H), 5-(2,5-dimethylphenoxy)-2,2-dimethylpentanoic acid sodium salt(I), and (S)-3-(benzoylaminomethyl)-5-methylhexanoic acid sodium salt(J).
10% solution of the test compound in water was used. The amount of a HPC or its parent drug penetrating a skin was determined by high-performance liquid chromatography method. The results were shown in FIG. 8 and apparent flux values of the HPCs and their corresponding parent drugs were summarized in Table 2.

normal SD rats (SLAC/SD) = experiment: Blood glucose in normal SD rats treated with HPCs of NSAIAs; assay type: in vivo; settings: 30 mg/kg transdermally once per day, no fasting
Experimental: (§1) A HPC in the present disclosure lowered blood glucose levels in rat models (SLAC/GK, type 2 diabetes, n=7). 30 mg/kg of 8% diethylaminoethyl acetylsalicylate.HCl salt (P-1, in 25% ethanol); 4-acetamidophenyl salicylyldimethylaminobutyrate.HCl (P-6, in 25% ethanol), diethylaminoethyl 5-(2,4-difluorophenyl)acetylsalicylate.5-(2,4-difluorophenyl)acetylsalicylic acid salt (P-8, in 25% ethanol), diethylaminoethyl salicylsalicylate.HCl salt (P-9, in 25% ethanol), diethylaminoethyl salicylate.AcOH(P-10, in 25% ethanol), diethylaminoethyl 5-acetamido-acetylsalicylate.HCl(P-58, in 25% ethanol), diethylaminoethyl acetylsalicylsalicylate. HCl salt (P-59, in 25% ethanol), diethylaminoethyl acetylsalicylsalicylsalicylate. HCl salt (P-60, in 25% ethanol) were administered transdermally to the backs (6 cm^2, fur was shaved) of GK rats (SLAC/GK, 14-16 weeks old) and normal SD rats (SLAC/SD, 14-16 weeks old) once per day (at 8 am) for 6 weeks.
(§2) The blood glucose levels were measured once every 3 days at 4:30 pm (no fasting) from the third week to the sixth week as shown in Table 10a and 10b. […] Moreover, the blood glucose levels of the rats stayed at normal level (6-9 mmol/L, no fasting) after the treatment was stopped for 40 days.

[2] = tested on: SLAC:NOD-IDDM, type 1 diabetes; experiment: Anti-diabetes (type I) activity of HPCs of NSAIAs; assay type: in vivo, mice; settings: for blood glucose, Baseline: equal to 20 mg/kg of NSAIAs transdermally twice per day for 7 weeks; for blood glucose, Average: fourth week to seventh week, no fasting, equal to 20 mg/kg of NSAIAs transdermally twice per day
Description: 10% aqueous solution of diethylaminoethyl acetylsalicylate.acetylsalicylic acid salt (P-1, […]); 4-acetamidophenyl salicylyldimethylaminobutyrate. HCl (P-6), diethylaminoethyl 5-(2,4-difluorophenyl)acetylsalicylate.5-(2,4-difluorophenyl)acetylsalicylic acid salt (P-8), diethylaminoethyl salicylsalicylate.AcOH(P-9), diethylaminoethyl 5-acetamido-acetylsalicylate. HCl (P-58), diethylaminoethyl 2-(ρ-isobutylphenyl) propionate.citric acid (P-59), diethylaminoethyl acetylsalicylsalicylate. acetylsalicylsalicylsalicylic acid salt (P-60) (equal to of 20 mg/kg of NSAIAs) were administered transdermally to the shaved back (about 1.5 cm^2) of mice twice per day (at 8 am and 5 pm) for 7 weeks.
The blood glucose levels were measured once every 3 days at 4:30 pm (no fasting) from the fourth week to the seventh week as shown in Table 11.

SLAC/DB/DB obese mice = experiment: Blood glucose and blood lipid levels in DB/DB mice; assay type: in vivo; settings: 30 mg/kg transdermally once per day
Experimental: HPCs in the present disclosure lowered blood glucose levels and blood lipid levels in mice models (SLAC/DB/DB, obese mice, n=7). 30 mg/kg of 8% diethylaminoethyl acetylsalicylate.HCl salt (P-1, in 25% ethanol); 4-acetamidophenyl salicylyldimethylaminobutyrate.HCl (P-6, in 25% ethanol), diethylaminoethyl 5-(2,4-difluorophenyl)acetylsalicylate.5-(2,4-difluorophenyl)acetylsalicylic acid salt (P-8, in 25% ethanol), diethylaminoethyl salicylsalicylate.HCl salt (P-9, in 25% ethanol), diethylaminoethyl salicylate.AcOH(P-10, in 25% ethanol), diethylaminoethyl 5-acetamido-acetylsalicylate.HCl(P-58, in 25% ethanol), diethylaminoethyl acetylsalicylsalicylate.HCl salt (P-59, in 25% ethanol), diethylaminoethyl acetylsalicylsalicylsalicylate.HCl salt (P-60, in 25% ethanol) were administered transdermally to the backs (4 cm^2,fur was shaved) of DB/DB mice(SLAC/DB/DB, 10-12 weeks old) once per day (at 8 am) for 5 weeks. The blood glucose levels were measured once per week and blood lipid levels were measured once every other week.

[3] = tested on: GK rats (SLAC/GK, type 2 diabetes); experiment: Anti-diabetes (type II) activity of HPCs of NSAIAs in GK rats; assay type: in vivo; settings: 30 mg/kg transdermally once per day, no fasting
Experimental: as §1, §2

[4] = tested on: lesions similar to psoriasis generated by Malassezia; experiment: Anti-psoriasis activity, Malassezia-induced lesions; assay type: in vivo, Chinese white rabbits; settings: HPC 5% aq. applied to the lesion areas twice per day
Experimental: Heavy suspensions of Malassezia [Rosenberg, E. W., et al., Mycopathologia, 72, 147-154 (1980)] were applied to the shaved skin on the backs of Chinese white rabbits (n=4×6) twice (at […]) per day for 2 weeks to generate lesions similar to psoriasis. HPCs (5%, aq.) were applied to the same areas 3 hours (10 am and 6 pm) after the application of Malassezia (7 am and 3 pm). […] HCl, diethylaminoethyl 1,8-diethyl-1,3,4,9-tetrahydropyrano-[3,4-b]indole-1-acetate.HCl, diethylaminoethyl 2-amino-3-(4-bromo-benzoyl)benzeneacetate.HCl, diethylaminoethyl 3-chloro-4-(2-propenyloxy)benzeneacetate. HCl, diethylaminoethyl 1-(4-chlorobenzoyl-5-methoxy-2-methyl-1H-indole-3-acetoxyacetate. HCl, diethylaminoethyl 4-(4-chlorophenyl)-2-phenyl-5-thiazoleacetate.HCl, and diethylaminoethyl 3-(4-chlorophenyl)-1-phenyl-1H-pyrazole-4-acetate.HCl

[5] = 10% solution in water, human skin 360-400 μm, Franz cells

Structure (SMILES): CC(C)(Oc1ccc(C(=O)c2ccc(Cl)cc2)cc1)C(=O)OCCN1CCCCC1.Cl [1-piperidineethyl 2-[4-(4-chlorobenzoyl)phenoxy]-2-methyl-propinate. HCl salt]
- apparent flux (in vitro penetration rate) [1]: 590 μg/cm^2/h

Structure (SMILES): CC(C)(Oc1ccc(C(=O)c2ccc(Cl)cc2)cc1)C(=O)[O-].[Na+] [2-[4-(4-chlorobenzoyl)phenoxy]-2-methyl-propinic acid sodium salt, reference compound]
- apparent flux (in vitro penetration rate) [1]: 1 μg/cm^2/h

Structure (SMILES): Cc1ccc(C)c(OCCCC(C)(C)C(=O)OCC2CCCNC2)c1.Cl (stereo not shown) [3-piperidinemethyl 5-(2,5-dimethylphenoxy)-2,2-dimethylpentanoate.HCl salt]
- apparent flux (in vitro penetration rate) [1]: 400 μg/cm^2/h

Structure (SMILES): Cc1ccc(C)c(OCCCC(C)(C)C(=O)[O-])c1.[Na+] [5-(2,5-dimethylphenoxy)-2,2-dimethylpentanoic acid sodium salt, reference compound]
- apparent flux (in vitro penetration rate) ([1]; human, 10 % solution in water): 1 μg/cm^2/h

Structure (SMILES): CC(C)C[C@H](CNC(=O)c1ccccc1)CC(=O)[O-].[Na+] [(S)-3-(benzoylaminomethyl)-5-methylhexanoic acid sodium salt, reference compound]
- apparent flux (in vitro penetration rate) [1, 5]: 1 μg/cm^2/h

Structure (SMILES): CC(=O)N[C@@H](Cc1ccc(OC(C)=O)c(OC(C)=O)c1)C(=O)[O-].[Na+] [N-acetyl-3-(3,4-diacetyloxy-phenyl-L-alaninesodium salt, reference compound]
- apparent flux (in vitro penetration rate) [1]: 1 μg/cm^2/h

Structure (SMILES): CC(=O)N[C@H](Cc1cc(I)c(Oc2cc(I)c(O)c(I)c2)c(I)c1)C(=O)[O-].[Na+] [N-acetyl-D-3,5,3′,5′-tetraiodothyronine sodium salt, reference compound]
- apparent flux (in vitro penetration rate) ([1]; human, 10 % solution in water): 1 μg/cm^2/h

Structure (SMILES): CCN(CC)CCOC(=O)c1cc(NC(C)=O)ccc1OC(C)=O.Cl [P-58, diethylaminoethyl 5-acetamido-acetylsalicylate.HCl]
- blood glucose, Average (Week 2-5) (normal SD rats (SLAC/SD)): 5.8 ± 1.1 mmol/L
- blood glucose, Day 1 (normal SD rats (SLAC/SD)): 5.9 ± 1.2 mmol/L
- blood glucose, Baseline [2]: 17.9 ± 3.2 mmol/L
- blood glucose, Average [2]: 8.1 ± 1.9 mmol/L
- Cholesterol (total), Day 1 (SLAC/DB/DB obese mice): 7.1 ± 0.3 mmol/L
- Cholesterol (total), Week 5 (SLAC/DB/DB obese mice): 5.1 ± 0.6 mmol/L
- Triglycerides, Day 1 (SLAC/DB/DB obese mice): 4.9 ± 0.4 mmol/L
- Triglycerides, Week 5 (SLAC/DB/DB obese mice): 4.3 ± 0.5 mmol/L
- blood glucose, Day 1 (SLAC/DB/DB obese mice): 15.6 ± 2.9 mmol/L
- blood glucose, Week 5 (SLAC/DB/DB obese mice): 9.3 ± 2.1 mmol/L
- blood glucose, Average (Week 2-5) [3]: 9.4 ± 3.0 mmol/L
- blood glucose, Day 1 [3]: 17.1 ± 2.8 mmol/L

Structure (SMILES): CCN(CC)CCOC(=O)c1ccccc1OC(=O)c1ccccc1OC(=O)c1ccccc1OC(C)=O.Cl [P-60, diethylaminoethyl acetylsalicylsalicylsalicylate. HCl salt]
- blood glucose, Average (Week 2-5) (normal SD rats (SLAC/SD)): 5.7 ± 1.1 mmol/L
- blood glucose, Day 1 (normal SD rats (SLAC/SD)): 5.6 ± 1.3 mmol/L
- blood glucose, Baseline [2]: 17.5 ± 3.3 mmol/L
- blood glucose, Average [2]: 8.8 ± 1.9 mmol/L
- Cholesterol (total), Day 1 (SLAC/DB/DB obese mice): 7.0 ± 0.8 mmol/L
- Cholesterol (total), Week 5 (SLAC/DB/DB obese mice): 5.0 ± 0.4 mmol/L
- Triglycerides, Day 1 (SLAC/DB/DB obese mice): 4.3 ± 0.5 mmol/L
- Triglycerides, Week 5 (SLAC/DB/DB obese mice): 4.3 ± 0.5 mmol/L
- blood glucose, Day 1 (SLAC/DB/DB obese mice): 14.8 ± 2.7 mmol/L
- blood glucose, Week 5 (SLAC/DB/DB obese mice): 9.0 ± 2.1 mmol/L
- blood glucose, Average (Week 2-5) [3]: 9.3 ± 2.9 mmol/L
- blood glucose, Day 1 [3]: 15.9 ± 2.8 mmol/L

Structure (SMILES): CCc1cccc2c3c([nH]c12)C(CC)(CC(=O)OCCN(CC)CC)OCC3.Cl (stereo not shown) [diethylaminoethyl 1,8-diethyl-1,3,4,9-tetrahydropyrano-[3,4-b]indole-1-acetate.HCl]
- time until lesions healed after the application [4]: 10 days

Structure (SMILES): CCN(CC)CCOC(=O)COC(=O)Cc1c(C)n(C(=O)c2ccc(Cl)cc2)c2ccc(OC)cc12.Cl [diethylaminoethyl 1-(4-chlorobenzoyl-5-methoxy-2-methyl-1H-indole-3-acetoxyacetate. HCl]
- time until lesions healed after the application [4]: 10 days

Structure (SMILES): CCN(CC)CCOC(=O)Cc1cccc(C(=O)c2ccc(Br)cc2)c1N.Cl [diethylaminoethyl 2-amino-3-(4-bromo-benzoyl)benzeneacetate.HCl]
- time until lesions healed after the application [4]: 10 days

Structure (SMILES): CCN(CC)CCOC(=O)Cc1cn(-c2ccccc2)nc1-c1ccc(Cl)cc1.Cl [diethylaminoethyl 3-(4-chlorophenyl)-1-phenyl-1H-pyrazole-4-acetate.HCl]
- time until lesions healed after the application [4]: 10 days

Structure (SMILES): C=CCOc1ccc(CC(=O)OCCN(CC)CC)cc1Cl.Cl [diethylaminoethyl 3-chloro-4-(2-propenyloxy)benzeneacetate. HCl]
- time until lesions healed after the application [4]: 10 days

Structure (SMILES): CCN(CC)CCOC(=O)Cc1sc(-c2ccccc2)nc1-c1ccc(Cl)cc1.Cl [diethylaminoethyl 4-(4-chlorophenyl)-2-phenyl-5-thiazoleacetate.HCl]
- time until lesions healed after the application [4]: 10 days

Structure (SMILES): CCN(CC)CCOC(=O)C[C@@H](CNC(=O)c1ccccc1)CC(C)C.Cl [diethylaminoethyl (S)-3-(benzoylaminomethyl)-5-methylhexanoate.HCl salt]
- apparent flux (in vitro penetration rate) [1, 5]: 650 μg/cm^2/h

Structure (SMILES): CCN(CC)CCOC(=O)[C@H](Cc1ccc(OC(C)=O)c(OC(C)=O)c1)NC(C)=O.Cl [diethylaminoethyl N-acetyl-3-(3,4-diacetyloxy-phenyl-L-alanine ester.HCl salt]
- apparent flux (in vitro penetration rate) [1]: 550 μg/cm^2/h

Structure (SMILES): CCN(CC)CCCOC(=O)[C@@H](Cc1cc(I)c(Oc2cc(I)c(O)c(I)c2)c(I)c1)NC(C)=O.Cl [diethylaminopropyl N-acetyl-D-3,5,3′,5′-tetraiodothyronine.HCl salt]
- apparent flux (in vitro penetration rate) [1]: 480 μg/cm^2/h
